Earlier results as cited in publication PMC8597081, “Diphenylalanine Motif Drives Self‐Assembling in Hybrid PNA‐Peptide Conjugates” (Chemistry (Weinheim an Der Bergstrasse, Germany), 2021).

Details: N3-protonated cytosine; N7-protonated guanine
Protocol: Nevertheless, as it can be seen in the 1D spectra (Figure S12) even at 46.9 mM concentration, the absence of a signal at low field arising from the imino proton let speculate that guanine and cytosine are not paired.

| SMILES | pKa |
| --- | --- |
| Nc1nc2nc[nH]c2c(=O)[nH]1 [guanine] | 1.9–2.2 |
| Nc1cc[nH]c(=O)n1 [cytosine] | 4.2 |
